Test results as given in US20230405003A1, “APPLICATION OF THYMIDINE DERIVATIVE IN PREPARATION OF DRUGS” (ONQUALITY PHARMACEUTICALS CHINA LTD., priority 2020, published 2023).
Where two headings read alike, the source gives them in different places.

How the values were obtained:
HaCaT cells = assay: Relief of 5-FU proliferative toxicity to HaCaT cells (CCK-8 cell survival); assay type: cell-based; conditions: for Cell Survival Rate (increased percentage of cell survival compared with the Group of 5-FU): 5-Fu 20 μM, HaCaT cells
Method in brief: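 HaCaT keratinocytes (5000–10000/well) cultured 24 h, then exposed 48 h to 5-FU alone or with thymidine derivative, or thymidine plus uridine derivative mix, versus solvent-matched blanks. Survival by CCK-8; value is % increase in survival over 5-FU alone, t-test.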

[1] = test system: 5-FU-induced diarrhea in Balb/c mice; assay: 5-FU-induced diarrhea mouse model (175 mg/kg single i.p.); assay type: in vivo; conditions: 5-FU 175 mg/kg single i.p.; for Survival Rate / Average Diarrhea Grade: 6 days; for Average Diarrhea Grade: score 0-4
Description: 7-8-week-old male Balb/c mice were used to establish a 5-FU induced diarrhea model to test the effect of the thymidine derivative or the combination of thymidine derivative and uridine derivative on the relief of diarrhea.
Modeling dose of 5-Fu: 175 mg/kg; single administration, intraperitoneal injection (ip.);
Administration mode of the compound to test (thymidine derivative or combination of thymidine derivative and uridine derivative): single administration, by gavage, advance administration of the compound to test at various time points prior to intraperitoneal injection of 5-FU. The compound to test was administered 1 h prior to the administration of 5-FU, a certain amount of 5-FU was injected intraperitoneally 1 h later, and the compound to test was administered once again 7 h after the injection of 5-FU.
The mice were fed and adapted for one week, and then divided into groups, with 10 mice in each group for administration test.
The mice in the Group of blank was injected with 0.9% NaCl, and evaluated the effect by observing the change of diarrhea grade, food uptake, and weight change. The severity of diarrhea was scored in accordance with the following standards: 0: normal feces, 1: soft feces, 2: slightly wet, soft feces, 3: wet, unformed feces, with moderate coloration in perianal region, 4: watery feces with heavy coloration of hair in perianal region. The severity of diarrhea was evaluated by occurrence scores of various grades of diarrhea (Scores 0 to 4) and average score of diarrhea. […] The models were stable, and satisfied the experimental requirements.
5-FU was dissolved in a 0.9% NaCl solution, the mice in the model group and the treatment group were all i.p. injected at a dose of 175 mg/kg/d, […]. While modeling of injection administration of 5-FU, the thymidine derivative or the combination of thymidine derivative and uridine derivative was administered by gavage, and the compounds to test were dissolved in a PBS solution containing 5% DMSO+1% HPMC. Body weight was weighed daily to count the weight change (Δ % BW, the weight changes recorded in the table were the values on Day 6), and the food was weighed daily to calculate the food uptake. The mice were daily observed for their clinical status, e.g., activity, diarrhea, hair, fighting, etc. After 6 days, the experiments were completed and statistically analyzed for the results.

[2] = test system: hand-foot syndrome caused by capecitabine in Balb/c mice; assay: Mouse model of hand-foot syndrome caused by capecitabine, gel application or oral administration; assay type: in vivo; conditions: Mus musculus, 192 h, capecitabine 1000 mg/kg once daily, oral 200 mpk twice per day, 8 days
Description: A mouse animal model was established. 6-week aged male Balb/c mice were administered with capecitabine by daily gavage. After a few days, mice's paws developed hand-foot syndrome symptoms (similar to the results of the rat model, such as, in FIG. 13). Similar to the human body, mice developed hand-foot syndrome in the forepaws and hind paws after oral administration of capecitabine. The causes of the two are the same, and the disorder is also very similar. Therefore, mice are very good animal models for simulating the hand-foot syndrome caused by capecitabine.
After Balb/c mice were fed and adapted for one week (about 20 g), the mice were divided into groups, with 10 mice in each group. Then, the mice were subject to gavage administration. Capecitabine was dissolved in normal saline with pH=8, and the gavage dose was not greater than 0.3 mL at each time. After gavage, the blank gel was applied to the forepaws and the hind paws (about 4*0.5 cm*0.5 cm) in group of blank gel, and gels containing different drugs were applied to the forepaws and the hind paws (about 4*0.5 cm*0.5 cm) in group of administration. After application, the mice were fixed in Elizabethan collar for 4 hours. After 4 hours, the mice were released, wiped with clean water to remove any residual drug at the application site, and allowed back to the cage. The gavage and application tests are repeated daily until the group of blank has developed obvious hand-foot syndrome. […] Additionally, the thymidine derivative and the combination of thymidine derivative and uridine derivative were orally administered for observing the relief of the hand-foot syndrome. In examples 41-48, thymidine derivative and/or uridine derivative were/was applied, and in examples 49-52, thymidine derivative and/or uridine derivative were/was administered orally.
Table 5 lists the combinations of animal experiments of capecitabine and thymidine derivative (or a combination of thymidine derivative and uridine derivative) and the corresponding experimental results (wherein the data in the column of control rate=the occurrence rate of hand-foot syndrome in group of blank—the occurrence rate of hand-foot syndrome in group of administration).
The effect of thymidine derivative or a combination of thymidine derivative and uridine derivative on a mouse model with chemotherapeutic drug (capecitabine)-induced hand-foot syndrome was tested according to the method in Examples 41-52. Wherein, the drugs were administered transdermally for Examples 119-120 and orally for Examples 121-123.
The test thymidine derivative or the combination of thymidine derivative and uridine derivative, as well as the final concentration of the test compounds were shown in Table 9. Table 9 lists the combinations of animal experiments of capecitabine and the thymidine derivative gel (or a compounded gel of thymidine derivative and uridine derivative) and the corresponding experimental results (wherein the data in the column of control rate=the occurrence rate of hand-foot syndrome in Group of blank—the occurrence rate of hand-foot syndrome in Group of administration).

[3] = selected compound final concentration 0.8 μM
[4] = selected compound final concentration 1.6 μM
[5] = selected compound final concentration 3.13 μM
[6] = selected compound final concentration 6.25 μM
[7] = selected compound final concentration 12.5 μM
[8] = selected compound final concentration 25 μM
[9] = selected compound final concentration 50 μM

For `CCC(CC)COC(=O)[C@H](C)N[P@](=O)(OC[C@H]1O[C@@H](n2cc(C)c(=O)[nH]c2=O)C[C@@H]1O)Oc1ccccc1` [T48], the “Cell Survival Rate (increased percentage of cell survival compared with the Group of 5-FU)” value (HaCaT cells; [3]) was 26%-34%, the “Cell Survival Rate (increased percentage of cell survival compared with the Group of 5-FU)” value (HaCaT cells; [4]) was 38%-46% and the “Cell Survival Rate (increased percentage of cell survival compared with the Group of 5-FU)” value (HaCaT cells; [5]) was 41%-48%. For the same compound, the “Cell Survival Rate (increased percentage of cell survival compared with the Group of 5-FU)” value (HaCaT cells; [6]) was 66%-73%, the “Cell Survival Rate (increased percentage of cell survival compared with the Group of 5-FU)” value (HaCaT cells; [7]) was 68%-76% and the “Cell Survival Rate (increased percentage of cell survival compared with the Group of 5-FU)” value (HaCaT cells; [8]) was 77%-85%. For the same compound, the “Cell Survival Rate (increased percentage of cell survival compared with the Group of 5-FU)” value (HaCaT cells; [9]) was 69%-76%, the “Δ % BW (on Day 6)” value ([1]; 15 mpk gavage) was −1.97% ± 0.67% and the “Survival Rate” value ([1]; 15 mpk gavage) was 100%. The “Average Diarrhea Grade” value ([1]; 15 mpk gavage) was 1.3.

For `CCCC(=O)OC[C@H]1O[C@@H](n2cc(C)c(=O)[nH]c2=O)C[C@@H]1OC(=O)CCC` [T6, ((2R,3S,5R)-3-(butyryloxy)-5-(5-methyl-2,4-dioxo-3,4-dihydropyrimidin-1(2H)-yl)tetrahydrofuran-2-yl)methyl Butyrate], the activation at 1 µM (HaCaT cells; Homo sapiens, HaCaT, increase vs Group of 5-FU, 5-FU 20 μM, compound 1 μM, 48 h, read-out: Cell Survival Rate) was 27 to 34%, the activation at 5 µM (HaCaT cells; Homo sapiens, HaCaT, increase vs Group of 5-FU, 5-FU 20 μM, compound 5 μM, 48 h, read-out: Cell Survival Rate) was 40 to 48% and the activation at 10 µM (HaCaT cells; Homo sapiens, HaCaT, increase vs Group of 5-FU, 5-FU 20 μM, compound 10 μM, 48 h, read-out: Cell Survival Rate) was 55 to 65%. For the same compound, the activation at 50 µM (HaCaT cells; Homo sapiens, HaCaT, increase vs Group of 5-FU, 5-FU 20 μM, compound 50 μM, 48 h, read-out: Cell Survival Rate) was 65 to 75%, the activation at 100 µM (HaCaT cells; Homo sapiens, HaCaT, increase vs Group of 5-FU, 5-FU 20 μM, compound 100 μM, 48 h, read-out: Cell Survival Rate) was 68 to 75% and the activation at 200 µM (HaCaT cells; Homo sapiens, HaCaT, increase vs Group of 5-FU, 5-FU 20 μM, compound 200 μM, 48 h, read-out: Cell Survival Rate) was 85 to 95%. The inhibition in vivo at 200 mg/kg ([2]; read-out: Control Rate Forepaws) was 65% and the inhibition in vivo at 200 mg/kg ([2]; read-out: Control Rate Hindpaws) was 77.5%.

`CCC(CC)COC(=O)[C@H](C)N[P@@](=O)(Oc1ccccc1)O[C@H]1C[C@H](n2cc(C)c(=O)[nH]c2=O)O[C@@H]1CO` [T49] was tested, and the “Cell Survival Rate (increased percentage of cell survival compared with the Group of 5-FU)” value (HaCaT cells; [3]) was 35%-42%, the “Cell Survival Rate (increased percentage of cell survival compared with the Group of 5-FU)” value (HaCaT cells; [4]) was 56%-63% and the “Cell Survival Rate (increased percentage of cell survival compared with the Group of 5-FU)” value (HaCaT cells; [5]) was 72%-79%. For the same compound, the “Cell Survival Rate (increased percentage of cell survival compared with the Group of 5-FU)” value (HaCaT cells; [6]) was 68%-74%, the “Cell Survival Rate (increased percentage of cell survival compared with the Group of 5-FU)” value (HaCaT cells; [7]) was 36%-44% and the “Δ % BW (on Day 6)” value ([1]; 15 mpk gavage) was −1.97% ± 0.67%. For the same compound, the “Survival Rate” value ([1]; 15 mpk gavage) was 80% and the “Average Diarrhea Grade” value ([1]; 15 mpk gavage) was 0.75.

With `Cc1cn([C@H]2C[C@H](O)[C@@H](COC(=O)C(C)c3cccc(C(=O)c4ccccc4)c3)O2)c(=O)[nH]c1=O` (stereo partly shown) [T33] the “Cell Survival Rate (increased percentage of cell survival compared with the Group of 5-FU)” value (HaCaT cells; [3]) was 36%-42%, the “Cell Survival Rate (increased percentage of cell survival compared with the Group of 5-FU)” value (HaCaT cells; [4]) was 37%-44% and the “Cell Survival Rate (increased percentage of cell survival compared with the Group of 5-FU)” value (HaCaT cells; [5]) was 39%-49%. For the same compound, the “Cell Survival Rate (increased percentage of cell survival compared with the Group of 5-FU)” value (HaCaT cells; [6]) was 36%-42%, the “Cell Survival Rate (increased percentage of cell survival compared with the Group of 5-FU)” value (HaCaT cells; [7]) was 55%-63% and the “Cell Survival Rate (increased percentage of cell survival compared with the Group of 5-FU)” value (HaCaT cells; [8]) was 64%-71%. The “Cell Survival Rate (increased percentage of cell survival compared with the Group of 5-FU)” value (HaCaT cells; [9]) was 66%-73%, the “Cell Survival Rate (increased percentage of cell survival compared with the Group of 5-FU)” value (HaCaT cells; selected compound final concentration 100 μM) was 55%-63% and the “Δ % BW (on Day 6)” value ([1]; 50 mpk gavage) was 4.18% ± 0.56%. The “Survival Rate” value ([1]; 50 mpk gavage) was 100% and the “Average Diarrhea Grade” value ([1]; 50 mpk gavage) was 1.
